Measured values published in patent US9137992B2, “Spinosyn-producing polyketide synthases” (DOW AGROSCIENCES LLC, priority 2002, dated 2015).

Columns and labels:
[1] = test system: tobacco budworm (Heliothis virescens) larvae; test: Topical assay on tobacco budworm larvae; type: in vivo; settings: acetone solution, 1 microg/larva, six larvae, mortality at end of two-day period, 21° C., 60% RH
Protocol: (§1) Biological activity of the compounds of the invention was shown by a topical assay in which the compound was applied to laboratory-reared larvae (mean weight 22 mg) at the rate of 1 microg/larva. Each compound was applied, in an acetone solution (1 mg/mL), along the dorsum of six tobacco budworm (Heliothis virescens) larvae and six beet armyworm (Spodoptera exigua) larvae. Treated larvae were then held for two days at 21° C., 60% RH in six-well plastic culture plates. Larvae were each supplied with a 1 cm^3 of agar-based Lepidoptera diet for sustenance during the two-day post-exposure interval. Percent mortality was determined at the end of a two-day period (Table 18).

[2] = test system: beet armyworm (Spodoptera exigua) larvae; test: Topical assay on beet armyworm larvae; type: in vivo; settings: acetone solution, 1 microg/larva, six larvae, mortality at end of two-day period, 21° C., 60% RH
Protocol: as §1

[3] = test system: insect; test: Insect control assays; settings: in vivo

SMILES	Tobacco Budworm Mortality (%) [1]	Beet Armyworm Mortality (%) [2]	activity in insect control assays [3]
CO[C@@H]1[C@@H](OC)[C@H](C)O[C@@H](O[C@@H]2C[C@H]3CC[C@@H]4[C@@H](C=C5C(=O)[C@H](C)[C@@H](O[C@H]6CC[C@H](N(C)C)[C@@H](C)O6)CCC[C@H](C6CCC6)OC(=O)C[C@H]54)[C@@H]3C2)[C@@H]1OC [Compound 8, 5,6-dihydro-21-desethyl-21-cyclobutyl spinosyn A]	100%	83%	–
CCC[C@H]1CCC[C@H](O[C@H]2CC[C@H](N(C)C)[C@@H](C)O2)[C@@H](C)C(=O)C2=C[C@@H]3[C@@H](C=C[C@@H]4C[C@@H](O[C@@H]5O[C@@H](C)[C@H](OC)[C@@H](OC)[C@H]5OC)C[C@@H]34)[C@@H]2CC(=O)O1 [Compound 23, 21-desethyl-21-n-propyl spinosyn A]	100%	100%	–
CO[C@@H]1[C@@H](OC)[C@H](C)O[C@@H](O[C@H]2C[C@H]3[C@@H]4C=C5C(=O)[C@H](C)[C@@H](O[C@H]6CC[C@H](N(C)C)[C@@H](C)O6)CCC[C@H](C(C)C)OC(=O)C[C@H]5[C@@H]4C=C[C@@H]3C2)[C@@H]1OC [Compound 9, 21-desethyl-21-isopropyl spinosyn A]	100%	100%	active
CO[C@@H]1[C@@H](OC)[C@H](C)O[C@@H](O[C@H]2C[C@H]3[C@@H]4C=C5C(=O)[C@H](C)[C@@H](O[C@H]6CC[C@H](N(C)C)[C@@H](C)O6)CCC[C@H](C6CCC6)OC(=O)C[C@H]5[C@@H]4C=C(C)[C@@H]3C2)[C@@H]1OC [Compound 4, 21-desethyl-21-cyclobutyl spinosyn D]	100%	83%	–
CO[C@@H]1[C@@H](OC)[C@H](C)O[C@@H](O[C@H]2C[C@H]3[C@@H]4C=C5C(=O)[C@H](C)[C@@H](O[C@H]6CC[C@H](N(C)C)[C@@H](C)O6)CCC[C@@H](C6CCC6)OC(=O)C[C@H]5[C@@H]4C=C[C@@H]3C2)[C@@H]1OC [Compound 3, 21-desethyl-21-cyclobutyl spinosyn A]	83%	83%	–
CO[C@@H]1[C@@H](OC)[C@H](C)O[C@@H](O[C@H]2C[C@H]3[C@@H]4C=C5C(=O)[C@H](C)[C@@H](O[C@H]6CC[C@H](N(C)C)[C@@H](C)O6)CCC[C@@H](C6CC6)OC(=O)C[C@H]5[C@@H]4C=C[C@@H]3C2)[C@@H]1OC [Compound 1, 21-desethyl-21-cyclopropyl spinosyn A]	100%	33%	–
CCC[C@H]1CCC[C@H](O[C@H]2CC[C@H](N(C)C)[C@@H](C)O2)[C@@H](C)C(=O)C2=C[C@@H]3[C@@H](C=C[C@@H]4C[C@@H](O[C@@H]5O[C@@H](C)[C@H](OC)[C@@H](OC)[C@H]5OC)C[C@@H]34)[C@@H]2CC(=O)O1 [21-desethyl-21-n-propyl spinosyn A]	–	–	active
